Measured values published in article PMC3616494 (Journal of medicinal chemistry, 2008).
“Also recorded” adds a separate entry of the source. Each block holds one compound with its values, some of them ahead of it.

Experiments:
rat A3 AR = target: T1, rat A3 AR (Rattus norvegicus, UniProt P28647); test: Radioligand binding at rat A3 AR; details: for Binding affinity at the rat A3 AR (in words): CHO cells
T1 sequence (P28647 1-320): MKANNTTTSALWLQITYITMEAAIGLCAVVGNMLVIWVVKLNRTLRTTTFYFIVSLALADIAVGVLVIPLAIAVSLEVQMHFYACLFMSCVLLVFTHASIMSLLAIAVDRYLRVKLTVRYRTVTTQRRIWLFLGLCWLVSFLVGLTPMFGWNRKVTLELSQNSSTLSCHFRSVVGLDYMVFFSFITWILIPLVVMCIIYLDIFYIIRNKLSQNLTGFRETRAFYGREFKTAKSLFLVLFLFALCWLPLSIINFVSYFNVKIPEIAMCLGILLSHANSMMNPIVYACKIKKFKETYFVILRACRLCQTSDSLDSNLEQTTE

human A2B AR = details: cited from earlier work
human A3 AR = target: T2, human A3 AR (Homo sapiens, UniProt P0DMS8); test: Radioligand binding at human A3 AR; details: stated for all subtypes of ARs (hA1, hA2A, hA3)
T2 sequence (P0DMS8 1-318): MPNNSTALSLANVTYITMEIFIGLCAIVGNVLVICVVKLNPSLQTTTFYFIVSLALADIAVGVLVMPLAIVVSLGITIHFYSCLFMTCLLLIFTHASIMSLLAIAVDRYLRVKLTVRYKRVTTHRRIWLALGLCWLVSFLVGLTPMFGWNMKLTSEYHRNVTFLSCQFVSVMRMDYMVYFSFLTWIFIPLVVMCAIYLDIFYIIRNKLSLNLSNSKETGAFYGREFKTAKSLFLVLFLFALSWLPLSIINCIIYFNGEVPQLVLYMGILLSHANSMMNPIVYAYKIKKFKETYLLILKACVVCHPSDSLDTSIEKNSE

Structure (SMILES): CNc1nc(Cl)nc2c1ncn2[C@@H]1SC[C@@H](O)[C@H]1O [Compound 6a]
Ki (rat A3 AR): 658 ± 160 nM | Binding affinity at the rat A3 AR (in words) (rat A3 AR): lost their binding affinities

Structure (SMILES): O[C@@H]1[C@H](O)CS[C@H]1n1cnc2c(NCc3cccc(F)c3)nc(Cl)nc21 [Compound 6b]
Ki (rat A3 AR): 36.2 ± 10.7 nM

Structure (SMILES): O[C@@H]1[C@H](O)CS[C@H]1n1cnc2c(NCc3cccc(Br)c3)nc(Cl)nc21 [Compound 6d]
Ki (rat A3 AR): 6.1 ± 1.8 nM

Structure (SMILES): O[C@@H]1[C@H](O)CS[C@H]1n1cnc2c(NCc3cccc(I)c3)nc(Cl)nc21 [Compound 6e]
Activity as agonist or antagonist in a cyclic AMP functional assay at the hA2B AR (human A2B AR): inactive as agonist or antagonist

Structure (SMILES): CNc1ncnc2c1ncn2[C@@H]1SC[C@@H](O)[C@H]1O [Compound 7a, (2R,3R,4S)-Tetrahydro-2-(6-(methylamino)-9H-purin-9-yl)thiophene-3,4-diol]
Binding affinity at the rat A3 AR (in words) (rat A3 AR): totally devoid of A3AR binding affinity; also recorded: lost their binding affinities

More lines, now with the values ahead:

Binding affinity (in words) (human A3 AR): totally devoid of binding affinities
Structure (SMILES): O[C@H]1[C@@H](O)CS[C@@H]1n1cnc2c(NCc3cccc(Br)c3)nc(Cl)nc21 [Compound 7f]

Binding affinity (in words) (human A3 AR): totally devoid of binding affinities
Structure (SMILES): O[C@H]1[C@@H](O)CS[C@@H]1n1cnc2c(NCc3cccc(I)c3)nc(Cl)nc21 [Compound 7g]
